Measured values as given in patent US11534457B2, “Use of dextran sulfate” (priority 2017, dated 2022).
“Also recorded” adds a separate entry of the source.

Key:
[1] = tested on: human primary cell-based systems; test: BioMAP Diversity PLUS panel (whole panel, profile and similarity analysis)
Source text: In this study LMW-DS was characterized by profiling in the BioMAP® Diversity PLUS panel. The BioMAP® panel consists of human primary cell-based systems designed to model different aspects of the human body in an in vitro format. The 12 systems in the BioMAP® Diversity PLUS panel (Table 32) allow test agent characterization in an unbiased way across a broad set of systems modeling various human disease states. The BioMA®P systems are constructed with one or more primary cell types from healthy human donors, with stimuli, such as cytokines or growth factors, added to capture relevant signaling networks that naturally occur in human tissue or pathological conditions. Vascular biology is modeled in both a Th1 (3C system) and a Th2 (4H system) inflammatory environment, as well as in a Th1 inflammatory state specific to arterial smooth muscle cells (CASM3C system). Additional systems recapitulate aspects of the systemic immune response including monocyte-driven Th1 inflammation (LPS system) or T cell stimulation (SAg system), chronic Th1 inflammation driven by macrophage activation (IMphg system) and the T cell-dependent activation of B cells that occurs in germinal centers (BT system). The BE3C system (Th1) and the BF4T system (Th2) represent airway inflammation of the lung, while the MyoF system models myofibroblast-lung tissue remodeling. Lastly, skin biology is addressed in the KF3CT system modeling Th1 cutaneous inflammation and the HDF3CGF system modeling wound healing.
Each test agent generates a signature BioMAP® profile that is created from the changes in protein biomarker readouts within individual system environments. Biomarker readouts (7-17 per system) are selected for therapeutic and biological relevance, are predictive for disease outcomes or specific drug effects and are validated using agents with known mechanism of action (MoA). Each readout is measured quantitatively by immune-based methods that detect protein, e.g., ELISA, or functional assays that measure proliferation and viability. BioMAP® readouts are diverse and include cell surface receptors, cytokines, chemokines, matrix molecules and enzymes. In total, the BioMAP® Diversity PLUS panel contains 148 biomarker readouts that capture biological changes that occur within the physiological context of the particular BioMAP® system.
Four concentrations of LMW-DS (150 nM, 440 nM, 1.3 μM, 4 μM) were investigated in the BioMAP® Diversity PLUS panel by Eurofins.
Human primary cells in BioMAP systems are used at early passage (passage 4 or earlier) to minimize adaptation to cell culture conditions and preserve physiological signaling responses. All cells are from a pool of multiple donors (n=2-6), commercially purchased and handled according to the recommendations of the manufacturers. Human blood derived CD14^+ monocytes are differentiated into macrophages in vitro before being added to the /Mphg system. Abbreviations are used as follows: Human umbilical vein endothelial cells (HUVEC), Peripheral blood mononuclear cells (PBMC), Human neonatal dermal fibroblasts (HDFn), B cell receptor (BCR), T cell receptor (TCR) and Toll-like receptor (TLR).
Cell types and stimuli used in each system are as follows: 3C system [HUVEC+(IL-1β, TNFα and IFNγ)], 4H system [HUVEC+(IL-4 and histamine)], LPS system [PBMC and HUVEC+LPS (TLR4 ligand)], SAg system [PBMC and HUVEC+TCR ligands], BT system [CD19^+ B cells and PBMC+(a-IgM and TCR ligands)], BF4T system [bronchial epithelial cells and HDFn+(TNFα and IL-4)], BE3C system [bronchial epithelial cells+(IL-1β, TNFα and IFNγ)], CASM3C system [coronary artery smooth muscle cells+(IL-1β, TNFα and IFNγ)], HDF3CGF system [HDFn+(IL-1β, TNFα, IFNγ, EGF, bFGF and PDGF-BB)], KF3CT system [keratinocytes and HDFn+(IL-1β, TNFα, IFNγ and TGFβ)], MyoF system [differentiated lung myofibroblasts+(TNFα and TGFβ)] and /Mphg system [HUVEC and M1 macrophages+Zymosan (TLR2 ligand)].
Systems are derived from either single cell types or co-culture systems. […]

[2] = tested on: MyoF system [differentiated lung myofibroblasts+(TNFα and TGFβ)]; test: BioMAP MyoF system; type: cell-based, Human
Source text: In this study LMW-DS was characterized by profiling in the BioMAP® Diversity PLUS panel. The BioMAP® panel consists of human primary cell-based systems designed to model different aspects of the human body in an in vitro format. The 12 systems in the BioMAP® Diversity PLUS panel (Table 32) allow test agent characterization in an unbiased way across a broad set of systems modeling various human disease states. The BioMA®P systems are constructed with one or more primary cell types from healthy human donors, with stimuli, such as cytokines or growth factors, added to capture relevant signaling networks that naturally occur in human tissue or pathological conditions. […]
Systems are derived from either single cell types or co-culture systems. […] Test agents prepared in either DMSO (small molecules; final concentration 0.1%) or PBS (biologics) are added at the indicated concentrations 1-hr before stimulation, and remain in culture for 24-hrs or as otherwise indicated (48-hrs, MyoF system; 72-hrs, BT system (soluble readouts); 168-hrs, BT system (secreted IgG)). […] Soluble factors from supernatants are quantified using either HTRF® detection, bead-based multiplex immunoassay or capture ELISA. Overt adverse effects of test agents on cell proliferation and viability (cytotoxicity) are detected by sulforhodamine B (SRB) staining, for adherent cells, and alamarBlue® reduction for cells in suspension. […]

## low molecular weight dextran sulfate [LMW-DS]
[1]; 150 nM to 4 μM
  CD69: increased
  EGFR: increased
  Eotaxin 3 (Eot3): increased
  I-TAC: decreased
  IL-8: increased
  IP-10: decreased
  M-CSF: decreased
  MCP-1: decreased
  MIG: decreased
  MMP-1: increased
  PAI-1: increased
  VCAM-1: decreased
  cytotoxicity for human primary cells: not cytotoxic; also recorded: noncytotoxic
  sTNFα: decreased
  secreted immunoglobulin G (sIgG): decreased
  thrombomodulin (TM): increased
  uPAR: increased
[1]; 150 nM, 440 nM, 1.3 μM, 4 μM
  annotated readouts in BioMAP profile: 25
[1]; top concentration only (4 μM)
  proliferation of human primary endothelial cells: modestly and selectively antiproliferative
[2]
  biomarker activities modulated: merely IL-8
[2]; MyoF system
  Increased biomarker activity: IL-8
